In ChEMBL document CHEMBL6153108, “Otitiglycomycins A and B: Glycolipids from the Strain Nocardia otitidiscavarum 20S-13 with Antiviral Activity against Zika Virus” (J Nat Prod, 2025):
Active and inactive are the calls of the source. The calls are words filed in the database; no cut-off is given here.

Columns and labels:
Zika virus [1] = assay: Antiviral activity against ZIKV MR766NIID expressing GFP infected in african green monkey Vero E6 assessed as reduction in viral replication preincubated for 2 hrs and measured after 22 hrs by flow cytometry assay; format: functional, organism-based; details: time 24.0 hrs
[2] = Selectivity index, ratio of IC50 for cytotoxicity against african green monkey Vero E6 cells to IC50 for ZIKV MR766NIID expressing GFP infected in african green monkey; format: toxicity, cell-based; details: read-out: Ratio IC50
Zika virus [3] = assay: Antiviral activity against ZIKV MR766NIID expressing GFP infected in african green monkey Vero E6 assessed as reduction in viral replication incubated for 24 hrs by flow cytometry assay; format: functional, organism-based; details: for Activity: dose 0.3-100 µM
Zika virus [4] = assay: Antiviral activity against ZIKV MR766NIID expressing GFP infected in african green monkey Vero E6 assessed as reduction in virus attachment to cell surface at 25 uM incubated for 1 hr by RT-qPCR analysis relative to control; format: functional; set-up: scale not given: the % may be the effect or the level left
Zika virus [5] = assay: Antiviral activity against ZIKV MR766NIID expressing GFP infected in african green monkey Vero E6 assessed as reduction in viral replication at 50 uM incubated for 24 hrs by flow cytometry assay relative to control; format: functional; set-up: scale not given: the % may be the effect or the level left
Zika virus [6] = assay: Antiviral activity against ZIKV MR766NIID expressing GFP infected in african green monkey Vero E6 assessed as neutralization of viral infection at 25 uM compound preincubated with virus for 2 hrs followed by 0.7 uM compound addition and measured after 2 hrs by flow cytometry analysis relative to control; format: functional, organism-based; details: time 4.0 hrs
Zika virus [7] = assay: Antiviral activity against ZIKV MR766NIID expressing GFP infected in african green monkey Vero E6 assessed as reduction in viral replication measured after 24 hrs by flow cytometry assay; format: functional; set-up: scale not given: the % may be the effect or the level left
[8] = Cytotoxicity against african green monkey Vero E6 cells assessed as cell viability incubated for 48 hrs by MTS assay; format: toxicity, cell-based, Vero C1008; details: African green monkey (Chlorocebus sabaeus)
Vero C1008 = assay: Cytotoxicity against african green monkey Vero E6 cells assessed as cell viability at 100 uM incubated for 48 hrs by MTS assay; format: toxicity, cell-based; details: chlorocebus sabaeus, vero c1008, 48 h

Structure (SMILES) | Activity (Zika virus [1]) | selectivity ratio [2] | IC50 (Zika virus [3]; Vero C1008, 24 h) [µM] | Activity (Zika virus [3]) | Activity (Zika virus [4]) [%] | Activity (Zika virus [5]) [%] | Activity (Zika virus [6]) | Activity (Zika virus [7]) [%] | IC50 at 48 h [8] [µM] | Activity (Vero C1008)
CCCCCCCCCCCCCCCCCC(=O)O[C@H]1[C@@H](O[C@H](CO)C(=O)O)O[C@H](CO)[C@@H](O)[C@@H]1OC(=O)C(C)C | inactive | > 10 | 10.5 | Dose-dependent-effect | 90 | 100 | Active | 100 | > 100 | Non-toxic
CCCCCCCCCCCCCCC(=O)O[C@H]1[C@@H](O[C@H](CO)C(=O)O)O[C@H](CO)[C@@H](O)[C@@H]1O | – | – | – | inactive | – | – | – | – | > 100 | Non-toxic
